# Tests used:
# Type in all cases: functional
# Conditions in all cases: 120 h
# [1] = system: Echinochloa esculenta; test: Herbicidal activity against Echinochloa esculenta assessed as inhibition of seed germination at 100 nM after 5 days relative to control
# [2] = system: Echinochloa esculenta; test: Herbicidal activity against Echinochloa esculenta assessed as inhibition of seed germination at 10 nM after 5 days relative to control
# [3] = system: Echinochloa esculenta; test: Herbicidal activity against Echinochloa esculenta assessed as inhibition of seed germination at 1 nM after 5 days relative to control
# [4] = system: Echinochloa esculenta; test: Herbicidal activity against Echinochloa esculenta assessed as inhibition of seed germination at 1000 nM after 5 days relative to control
Compound,inhibition at 0.1 µM [1] [%],inhibition at 0.01 µM [2] [%],inhibition at 0.001 µM [3] [%],inhibition at 1 µM [4] [%]
CCCCCCC(O)C1CCCN(Cc2ccccc2)C1=O (stereo unspecified),50,< 49,< 49,> 90
O=C1C(C(O)c2cccc(C(F)(F)F)c2)CCCN1Cc1ccccc1 (stereo unspecified),50,< 49,< 49,50
O=C1C(C(O)c2ccc3c(c2)OCCO3)CCN1C/C=C/c1ccccc1 (mixture of isomers),< 49,< 49,< 49,> 90
O=C1C(C(O)c2ccc3c(c2)OCCO3)CCCCN1C/C=C/c1ccccc1 (mixture of isomers),< 49,< 49,< 49,> 90
O=C1C(C(O)c2ccc3c(c2)OCCO3)Cc2ccccc2N1C/C=C/c1ccccc1 (mixture of isomers),< 49,< 49,< 49,< 49
COc1c(C(O)C2CCCN(Cc3ccccc3)C2=O)ccc2c1OCCO2 (mixture of isomers),< 49,< 49,< 49,> 90
O=C1C(C(O)c2ccc3c(c2)OCC(COCc2ccccc2)O3)CCCN1Cc1ccccc1 (mixture of isomers),50,< 49,< 49,> 90
CCOCC1COc2cc(C(O)C3CCCN(Cc4ccccc4)C3=O)ccc2O1 (mixture of isomers),50,< 49,< 49,50
COCC1COc2cc(C(O)C3CCCN(Cc4ccccc4)C3=O)ccc2O1 (mixture of isomers),> 90,< 49,< 49,> 90
O=C1C(C(O)c2ccc3c(c2)OCC(c2ccccc2)O3)CCCN1Cc1ccccc1 (mixture of isomers),< 49,< 49,< 49,< 49
O=C1C(C(O)c2ccnc3ccccc23)CCCN1Cc1ccccc1 (mixture of isomers),< 49,< 49,< 49,> 90
O=C1C(C(O)c2cnc3ccccc3c2)CCCN1Cc1ccccc1 (mixture of isomers),< 49,< 49,< 49,< 49
O=C1C(C(O)c2ccc3ccccc3n2)CCCN1Cc1ccccc1 (mixture of isomers),< 49,< 49,< 49,> 90
O=C1C(C(O)c2ccncc2)CCCN1Cc1ccccc1 (mixture of isomers),< 49,< 49,< 49,< 49
O=C1C(C(O)c2cccnc2)CCCN1Cc1ccccc1 (mixture of isomers),< 49,< 49,< 49,50
O=C1C(C(O)c2ccccn2)CCCN1Cc1ccccc1 (mixture of isomers),< 49,< 49,< 49,< 49
O=C1C(C(O)c2ccc3ccccc3c2)CCCN1Cc1ccccc1 (mixture of isomers),< 49,< 49,< 49,< 49

Compound,inhibition at 0.1 µM [1] [%],inhibition at 0.01 µM [2] [%],inhibition at 0.001 µM [3] [%],inhibition at 1 µM [4] [%]
O=C1C(C(O)c2cccc([N+](=O)[O-])c2)CCCN1Cc1ccccc1 (mixture of isomers),< 49,< 49,< 49,50
O=C1C(C(O)c2ccc([N+](=O)[O-])cc2)CCCN1Cc1ccccc1 (mixture of isomers),< 49,< 49,< 49,50
O=C1C(C(O)c2ccccc2C(F)(F)F)CCCN1Cc1ccccc1 (mixture of isomers),< 49,< 49,< 49,50
O=C1C(C(O)c2ccc(C(F)(F)F)cc2)CCCN1Cc1ccccc1 (mixture of isomers),< 49,< 49,< 49,50
O=C1C(C(O)c2ccc3c(c2)OCO3)CCCN1Cc1ccccc1 (mixture of isomers),< 49,< 49,< 49,< 49
O=C1C(C(O)c2cccc(O)c2)CCCN1Cc1ccccc1 (mixture of isomers),< 49,< 49,< 49,50
O=C1C(C(O)c2ccc(O)cc2)CCCN1Cc1ccccc1 (mixture of isomers),< 49,< 49,< 49,50
O=C1C(C(O)c2ccc(O)c(O)c2)CCCN1Cc1ccccc1 (mixture of isomers),< 49,< 49,< 49,50
COc1ccc(C(O)C2CCCN(Cc3ccccc3)C2=O)c(OC)c1 (mixture of isomers),< 49,< 49,< 49,< 49
COc1ccc(C(O)C2CCCN(Cc3ccccc3)C2=O)cc1OC (mixture of isomers),50,< 49,< 49,> 90
O=C1C(C(O)c2cccc(Oc3ccccc3)c2)CCCN1Cc1ccccc1 (mixture of isomers),< 49,< 49,< 49,50
O=C1C(C(O)c2ccc(Oc3ccccc3)cc2)CCCN1Cc1ccccc1 (mixture of isomers),< 49,< 49,< 49,< 49
O=C1C(C(O)c2ccc(Cl)cc2Cl)CCCN1Cc1ccccc1 (mixture of isomers),< 49,< 49,< 49,50
O=C1C(C(O)c2ccc(Cl)c(Cl)c2)CCCN1Cc1ccccc1 (mixture of isomers),< 49,< 49,< 49,50
O=C1C(C(O)c2cccc3ccccc23)CCCN1Cc1ccccc1 (mixture of isomers),< 49,< 49,< 49,< 49
COc1cc2c(cc1C(O)C1CCCN(Cc3ccccc3)C1=O)OCCO2 (mixture of isomers),50,< 49,< 49,50
COc1cc(C(O)C2CCCN(Cc3ccccc3)C2=O)cc2c1OCCO2 (mixture of isomers),< 49,< 49,< 49,50
